Publication PMC5855688, “BC-Box Motif-Mediated Neuronal Differentiation of Somatic Stem Cells” (International Journal of Molecular Sciences, 2018)

Tested on: skin-derived precursors (SKPs)
Assay: Neurite outgrowth / morphological evaluation of neuronal differentiation
Format: cell-based, rat (neonate Wistar)
Details: delivered with TAT PTD, 1 to 5 μM
Procedure: Rodent skin-derived precursor cells (SKPs), which can differentiate to neurons, were used. SKPs were previously isolated from the back dermis of neonate Wistar rats by the authors. These cells were cultured in growth medium composed of DMEM/F12 (1:1; Gibco, Grand Island, NY, USA) containing 2% B27 supplement (Gibco), 20 ng/mL epidermal growth factor (EGF; Upstate Biotechnology, Lake Placid, NY, USA), and 40 ng/mL bFGF (PeproTech EC Ltd., Rocky Hill, NJ, USA) in a humidified incubator at 37 °C with 5% CO2. The floating clusters of cultured cells were centrifuged and dissociated into a single-cell suspension by use of a Pasteur pipette with a flame-polished tip. These single cells were then re-suspended into at a concentration of 50,000 cells/mL for passage or experiments. […]
Neurite outgrowth with length exceeding the diameter of the neuronal soma is often assessed as a morphological index of neuronal differentiation. […] Thereafter, neurite outgrowth was evaluated with the following 4 levels: +++, for above 50% of the cells showing neurite outgrowth; ++, for 20–50% with neurite outgrowth; +, for 5–19% having neurite outgrowth; and −, for below 5% of the cells with neurite outgrowth.

Sequence	Neurite Outgrowth Activity (BC-box motif alone (10-residue) peptides)	Neurite Outgrowth Activity (BC-box motif plus five C-terminal amino acids peptides)
YARAAARQARASLTHLCRLEI [ASB3 BC-box motif alone]	- (below 5% of the cells with neurite outgrowth)	
YARAAARQARASLTHLCRLEIRSSIK [ASB3 BC-box motif plus five amino acids]		++ (20–50% with neurite outgrowth)
